Laboratory results from patent US8916599B2, “1H-benz imidazole-5-carboxamides as anti-inflammatory agents” (Orexo AB, priority 2008, dated 2014).

Biological target: T1, recombinant human mPGES-1 (Homo sapiens, UniProt O14684)
T1 construct: made in house; host or cells: Rosetta E. coli (microsomal/membrane fraction)
T1 sequence (O14684 1-152): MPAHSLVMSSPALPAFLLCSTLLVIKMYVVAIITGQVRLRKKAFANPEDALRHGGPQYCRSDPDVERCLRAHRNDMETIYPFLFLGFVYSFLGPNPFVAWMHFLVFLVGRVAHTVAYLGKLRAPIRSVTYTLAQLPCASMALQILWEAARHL
Assay: mPGES-1 inhibition test (microsomes, PGH2 substrate, HTRF detection of PGE2)
Type: biochemical
Settings: inhibition of mPGES-1 at 10 μM
Procedure, shortened: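 PGE2 formed from PGH2 in one minute by E. coli-expressed microsomal enzyme (pH 7.4, 2.5 mM GSH) was measured by competitive HTRF against a synthetic PGE2 standard curve. Compounds were preincubated 25 min at room temperature.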

Structure (SMILES) | inhibition at 10 µM
COc1cc2c(cc1C(=O)Nc1ccc(Br)cc1)nc(Nc1c(Cl)cccc1Cl)n2C [Example 359, 2-(2,6-Dichlorophenylamino)-6-methoxy-1-methyl-N-(4-bromo-phenyl)-1H-benzimidazole-5-carboxamide] | 100%
CC1CC(NC(=O)c2ccc3c(c2)nc(Nc2c(Cl)cccc2Cl)n3C)CC(C)(C)C1 (stereo not drawn) [Example 241, 2-(2,6-Dichloro-phenylamino)-1-methyl-1H-benzimidazole-5-carboxylic acid (3,3,5-trimethyl-cyclohexyl)-amide] | 100%
CCCCOc1cccc(NC(=O)c2ccc3[nH]c(Nc4c(Cl)cccc4Cl)nc3c2)n1 [Example 426, N-(6-Butoxypyridin-2-yl)-2-(2,6-dichlorophenylamino)-1H-benzimidazole-5-carboxamide] | 98%
O=C(Nc1ccccc1)c1ccc2[nH]c(Nc3cc(Cl)ccc3Cl)nc2c1 [Example 7, 2-(2,5-Dichloro-phenylamino)-1H-benzimidazole-5-carboxylic acid-phenylamide] | 100%
Cn1c(Nc2c(Cl)cccc2Cl)nc2cc(C(=O)NC3CC4CCCCC4C3)c(F)cc21 (stereo not drawn) [Example 163, 2-(2,6-Dichloro-phenylamino)-6-fluoro-1-methyl-1H-benzimidazole-5-carboxylic acid (octahydro-inden-2-yl)-amide] | 100%
O=C(NCC1CCCOC1)c1ccc2[nH]c(Nc3c(Cl)cccc3Cl)nc2c1 (stereo not drawn) [Example 227, 2-(2,6-Dichloro-phenylamino)-1H-benzimidazole-5-carboxylic acid (tetrahydro-pyran-3-ylmethyl)-amide] | 77%
COc1cc2nc(Nc3c(Cl)cccc3Cl)[nH]c2cc1C(=O)NC1CCCCC1 [Example 199, N-(Cyclohexyl)-2-(2,6-dichlorophenylamino)-6-methoxy-1H-benzimidazole-5-carboxamide] | 100%
O=C(Nc1ccccc1)c1ccc2[nH]c(Nc3c(Cl)cccc3Cl)nc2c1 [Example 1, 2-(2,6-Dichloro-phenylamino)-1H-benzimidazole-5-carboxylic acid phenylamide] | 100%
C[C@@H]1CCC[C@@H](NC(=O)c2cc3nc(Nc4c(Cl)cccc4Cl)n(C)c3cc2F)C1 [Example 442, 2-(2,6-Dichlorophenylamino)-6-fluoro-1-methyl-N-((1R,3R)-3-methylcyclohexyl)-1H-benzimidazole-5-carboxamide] | 99%
N#Cc1ccc(NC(=O)c2ccc3[nH]c(Nc4c(Cl)cccc4Cl)nc3c2)nc1 [Example 329, 2-(2,6-Dichloro-phenylamino)-1H-benzimidazole-5-carboxylic acid (5-cyano-pyridin-2-yl)-amide] | 89%
Cn1c(Nc2c(Cl)cccc2Cl)nc2cc(C(=O)NCc3cc(C(F)(F)F)ccn3)ccc21 [Example 245, 2-(2,6-Dichloro-phenylamino)-1-methyl-1H-benzimidazole-5-carboxylic acid (4-trifluoromethyl-pyridin-2-ylmethyl)-amide] | 97%
Cn1c(Nc2c(Cl)cccc2Cl)nc2cc(C(=O)NC3CCc4ccccc4C3)c(F)cc21 (stereo not drawn) [Example 162, 2-(2,6-Dichloro-phenylamino)-6-fluoro-1-methyl-1H-benzimidazole-5-carboxylic acid (1,2,3,4-tetrahydro-naphthalen-2-yl)-amide] | 100%
Cn1c(Nc2c(F)cccc2Cl)nc2cc(C(=O)NC3CCC4(CC3)CC4)c(F)cc21 [Example 384] | 100%
Cn1c(Nc2c(Cl)cccc2Cl)nc2cc(C(=O)NC3CCCCCC3)ccc21 [Example 238, 2-(2,6-Dichloro-phenylamino)-1-methyl-1H-benzimidazole-5-carboxylic acid cycloheptylamide] | 100%
Cn1c(Nc2c(Cl)cccc2Cl)nc2cc(C(=O)N[C@H]3CC[C@@H](C(F)(F)F)CC3)c(F)cc21 [Example 170, 2-(2,6-Dichloro-phenylamino)-6-fluoro-1-methyl-1H-benzimidazole-5-carboxylic acid (cis-4-trifluoromethyl-cyclohexyl)-amide] | 100%
COc1cc2[nH]c(Nc3c(Cl)cccc3Cl)nc2cc1C(=O)Nc1ccc(Br)cc1 [Example 371, N-(4-Bromophenyl)-2-(2,6-dichlorophenylamino)-6-methoxy-1H-benzimidazole-5-carboxamide] | 100%
COCCn1c(Nc2c(Cl)cccc2Cl)nc2cc(C(=O)NC3CCC(C)(C)CC3)ccc21 [Example 180, 2-(2,6-Dichloro-phenylamino)-1-(2-methoxy-ethyl)-1H-benzimidazole-5-carboxylic acid (4,4-dimethyl-cyclohexyl)-amide] | 98%
O=C(Nc1cc(Cl)ccn1)c1ccc2c(c1)nc(Nc1c(Cl)cccc1Cl)n2CCCO [Example 263, 2-(2,6-Dichloro-phenylamino)-1-(3-hydroxy-propyl)-1H-benzimidazole-5-carboxylic acid (4-chloro-pyridin-2-yl)-amide] | 93%

Now from value to molecule:

inhibition at 10 µM | Structure (SMILES)
85% | C#Cc1ccccc1Nc1nc2cc(C(=O)Nc3ccc(Br)cc3)ccc2n1C [Example 538, N-(4-Bromophenyl)-2-(2-ethynylphenylamino)-1-methyl-1H-benzimidazole-5-carboxamide]
100% | Cc1cc2[nH]c(Nc3c(Cl)cccc3Cl)nc2cc1C(=O)NC1CCC(C(C)(C)C)CC1 (stereo not drawn) [compound 148]
85% | Cn1c(Nc2c(F)cccc2Cl)nc2cc(C(=O)NCC3CC3)c(F)cc21 [Example 546, 2-(2-Chloro-6-fluorophenylamino)-N-(cyclopropylmethyl)-6-fluoro-1-methyl-1H-benzimidazole-5-carboxamide]
98% | COc1cc2nc(Nc3c(Cl)cccc3Cl)[nH]c2cc1C(=O)NCc1ncccc1C [Example 507, 2-(2,6-Dichlorophenylamino)-6-methoxy-N-((3-methylpyridin-2-yl)-methyl)-1H-benzimidazole-5-carboxamide]
77% | Cn1c(Nc2c(Cl)cccc2Cl)nc2cc(C(=O)NC3CCN(C4CC4)CC3)c(F)cc21 [Example 561, N-(1-Cyclopropylpiperidin-4-yl)-2-(2,6-dichlorophenylamino)-6-fluoro-1-methyl-1H-benzimidazole-5-carboxamide]
100% | COc1cc2[nH]c(Nc3c(Cl)cccc3Cl)nc2cc1C(=O)NCc1ncccc1Cl [Example 630]
75% | Cn1c(CNC(=O)c2cc3nc(Nc4c(Cl)cccc4Cl)n(C)c3cc2F)nc2ccccc21 [Example 563, 2-(2,6-Dichlorophenylamino)-6-fluoro-1-methyl-N-((1-methyl-1H-benzo[d]imidazol-2-yl)methyl)-1H-benzimidazole-5-carboxamide]
94% | Cn1c(Nc2c(Cl)ccc(Cl)c2F)nc2cc(C(=O)NC3CCC4(CC3)CC4)c(F)cc21 [Example 606, 2-(3,6-Dichloro-2-fluoro-phenylamino)-6-fluoro-N-(spiro[2.5]oct-6-yl)-1-methyl-1H-benzimidazole-5-carboxamide]
100% | O=C(Nc1ccc(Br)cc1)c1cc2nc(Nc3c(Cl)cc(F)cc3Cl)[nH]c2cc1OCCF [Example 585, 2-(2,6-Dichloro-4-fluoro-phenylamino)-N-(4-bromo-phenyl)-6-(2-fluoroethoxy)-1H-benzimidazole-5-carboxamide]
